Experiments:
Assay type in all cases: cell-based
hKv1.3 = hKv1.3 (Homo sapiens, UniProt P22001); assay: cell-based; details: Kv1.3 (IWQ) IC50 (nM, Avg)
[1] = tested on: IFN-g secretion from T cells in human whole blood; details: read-out: WB (IFNg) IC50 (nM, Avg)
[2] = tested on: IL-2 secretion from T cells in human whole blood; details: read-out: WB (IL-2) IC50 (nM, Avg)

hKv1.3, sequence (P22001 whole entry): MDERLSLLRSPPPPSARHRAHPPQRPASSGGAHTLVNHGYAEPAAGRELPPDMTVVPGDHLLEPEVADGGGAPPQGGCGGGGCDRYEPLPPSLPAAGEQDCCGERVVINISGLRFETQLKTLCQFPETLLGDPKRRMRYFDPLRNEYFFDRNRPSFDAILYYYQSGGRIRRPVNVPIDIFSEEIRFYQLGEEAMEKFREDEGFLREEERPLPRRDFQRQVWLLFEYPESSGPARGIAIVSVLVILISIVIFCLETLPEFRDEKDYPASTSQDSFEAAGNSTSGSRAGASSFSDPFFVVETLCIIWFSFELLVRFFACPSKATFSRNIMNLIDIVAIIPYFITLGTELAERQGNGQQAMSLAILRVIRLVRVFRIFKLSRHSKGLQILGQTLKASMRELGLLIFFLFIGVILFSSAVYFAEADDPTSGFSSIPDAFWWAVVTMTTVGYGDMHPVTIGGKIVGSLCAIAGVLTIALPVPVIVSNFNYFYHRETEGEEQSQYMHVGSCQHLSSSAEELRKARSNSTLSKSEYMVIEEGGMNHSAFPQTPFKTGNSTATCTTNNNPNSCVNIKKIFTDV

| Compound | IC50 (hKv1.3) [nM] | IC50 [1] [nM] | IC50 [2] [nM] |
| --- | --- | --- | --- |
| CCCC[C@@H]1NC(=O)[C@H](CO)NC(=O)[C@H](Cc2c[nH]cn2)NC(=O)[C@H](CCCCN)NC(=O)[C@@H]2CSSC[C@@H]3NC(=O)[C@H]([C@@H](C)O)NC(=O)[C@H](CCCNC(=N)N)NC(=O)[C@H](CCCCN)NC(=O)[C@H](CSSC[C@H](NC(=O)[C@H](CCCNC(=N)N)NC(=O)[C@H](CO)NC(=O)[C@H](CCCCN)NC(=O)[C@@H]4CCCN4C(=O)[C@H]([C@@H](C)CC)NC(=O)[C@H]([C@@H](C)O)NC(=O)[C@H](CC(=O)O)NC(=O)[C@H]([C@@H](C)CC)NC(=O)[C@@H](NC(=O)[C@H](CO)NC(=O)[C@@H](N)CCCNC(=N)N)CSSC[C@@H](C(N)=O)NC(=O)[C@H]([C@@H](C)O)NC(=O)CNC3=O)C(=O)N[C@@H]([C@@H](C)O)C(=O)N[C@@H](C)C(=O)N[C@@H](Cc3ccccc3)C(=O)N[C@@H](CCCCN)C(=O)N2)NC(=O)[C@H](Cc2ccccc2)NC(=O)[C@H](CO)NC(=O)[C@H](CC(C)C)NC(=O)[C@H](CCCNC(=N)N)NC(=O)[C@H](Cc2ccc(O)cc2)NC(=O)[C@H](CCCCN)NC1=O [[Lys16,29; Nle21,Arg30]ShK-amide] | 0.484 | 2.84 | 1.72 |
| CC[C@H](C)[C@@H]1NC(=O)[C@@H](NC(=O)[C@H](CO)NC(=O)[C@@H](N)CCCNC(=N)N)CSSC[C@@H](C(N)=O)NC(=O)[C@H]([C@@H](C)O)NC(=O)CNC(=O)[C@@H]2CSSC[C@@H]3NC(=O)[C@H](CCCCN)NC(=O)[C@H](Cc4ccccc4)NC(=O)[C@H](C)NC(=O)[C@H]([C@@H](C)O)NC(=O)[C@H](CSSC[C@H](NC(=O)[C@H](Cc4c[nH]c5ccccc45)NC(=O)[C@H](CO)NC(=O)[C@H](CC(C)C)NC(=O)[C@H](CCCNC(=N)N)NC(=O)[C@H](Cc4ccc(O)cc4)NC(=O)[C@H](CCCCN)NC(=O)[C@H](CCSC)NC(=O)[C@H](CO)NC(=O)[C@H](Cc4c[nH]cn4)NC(=O)[C@H](CCCCN)NC3=O)C(=O)N[C@@H](CCCCN)C(=O)N[C@@H](CCCCN)C(=O)N[C@@H]([C@@H](C)O)C(=O)N2)NC(=O)[C@H](CCCNC(=N)N)NC(=O)[C@H](CO)NC(=O)[C@H](CCCCN)NC(=O)[C@@H]2CCCN2C(=O)[C@H]([C@@H](C)CC)NC(=O)[C@H]([C@@H](C)O)NC(=O)[C@H](CC(=O)O)NC1=O [[Lys16,29;Trp27]ShK-amide] | 0.121 | 0.606 | 0.264 |
| CC[C@H](C)[C@@H]1NC(=O)[C@@H](NC(=O)[C@H](CO)NC(=O)[C@@H](N)CCCNC(=N)N)CSSC[C@@H](C(N)=O)NC(=O)[C@H]([C@@H](C)O)NC(=O)CNC(=O)[C@@H]2CSSC[C@@H]3NC(=O)[C@H](CCCCN)NC(=O)[C@H](Cc4ccccc4)NC(=O)[C@H](C)NC(=O)[C@H]([C@@H](C)O)NC(=O)[C@H](CSSC[C@H](NC(=O)[C@H](Cc4ccccc4)NC(=O)[C@H](Cc4ccc(O)cc4)NC(=O)[C@H](CC(C)C)NC(=O)[C@H](CCCNC(=N)N)NC(=O)[C@H](Cc4ccc(O)cc4)NC(=O)[C@H](CCCCN)NC(=O)[C@H](CCSC)NC(=O)[C@H](CO)NC(=O)[C@H](Cc4c[nH]cn4)NC(=O)[C@H](CCCCN)NC3=O)C(=O)N[C@@H](CCCCN)C(=O)N[C@@H](CCCCN)C(=O)N[C@@H]([C@@H](C)O)C(=O)N2)NC(=O)[C@H](CCCNC(=N)N)NC(=O)[C@H](CO)NC(=O)[C@H](CCCCN)NC(=O)[C@@H]2CCCN2C(=O)[C@H]([C@@H](C)CC)NC(=O)[C@H]([C@@H](C)O)NC(=O)[C@H](CC(=O)O)NC1=O [[Lys16,29;Tyr26]ShK-amide] | 0.084 | 0.754 | 1.04 |
| CC[C@H](C)[C@@H]1NC(=O)[C@@H](NC(=O)[C@H](CO)NC(=O)[C@@H](N)CCCNC(=N)N)CSSC[C@@H](C(N)=O)NC(=O)[C@H]([C@@H](C)O)NC(=O)CNC(=O)[C@@H]2CSSC[C@@H]3NC(=O)[C@H](CCCCN)NC(=O)[C@H](Cc4ccccc4)NC(=O)[C@H](C)NC(=O)[C@H]([C@@H](C)O)NC(=O)[C@H](CSSC[C@H](NC(=O)[C@H](Cc4ccc(O)cc4)NC(=O)[C@H](CO)NC(=O)[C@H](CC(C)C)NC(=O)[C@H](CCCNC(=N)N)NC(=O)[C@H](Cc4ccc(O)cc4)NC(=O)[C@H](CCCCN)NC(=O)[C@H](CCSC)NC(=O)[C@H](CO)NC(=O)[C@H](Cc4c[nH]cn4)NC(=O)[C@H](CCCCN)NC3=O)C(=O)N[C@@H](CCCCN)C(=O)N[C@@H](CCCCN)C(=O)N[C@@H]([C@@H](C)O)C(=O)N2)NC(=O)[C@H](CCCNC(=N)N)NC(=O)[C@H](CO)NC(=O)[C@H](CCCCN)NC(=O)[C@@H]2CCCN2C(=O)[C@H]([C@@H](C)CC)NC(=O)[C@H]([C@@H](C)O)NC(=O)[C@H](CC(=O)O)NC1=O [[Lys16,29;Tyr27]ShK-amide] | 0.042 | 1.17 | 0.738 |
| CC[C@H](C)[C@@H]1NC(=O)[C@@H](NC(=O)[C@H](CO)NC(=O)[C@@H](N)CCCNC(=N)N)CSSC[C@@H](C(N)=O)NC(=O)[C@H]([C@@H](C)O)NC(=O)CNC(=O)[C@@H]2CSSC[C@@H]3NC(=O)[C@H](CCCCN)NC(=O)[C@H](Cc4ccccc4)NC(=O)[C@H](C)NC(=O)[C@H]([C@@H](C)O)NC(=O)[C@H](CSSC[C@H](NC(=O)[C@H](Cc4ccc5ccccc5c4)NC(=O)[C@H](CO)NC(=O)[C@H](CC(C)C)NC(=O)[C@H](CCCNC(=N)N)NC(=O)[C@H](Cc4ccc(O)cc4)NC(=O)[C@H](CCCCN)NC(=O)[C@H](CCSC)NC(=O)[C@H](CO)NC(=O)[C@H](Cc4c[nH]cn4)NC(=O)[C@H](CCCCN)NC3=O)C(=O)N[C@@H](CCCCN)C(=O)N[C@@H](CCCCN)C(=O)N[C@@H]([C@@H](C)O)C(=O)N2)NC(=O)[C@H](CCCNC(=N)N)NC(=O)[C@H](CO)NC(=O)[C@H](CCCCN)NC(=O)[C@@H]2CCCN2C(=O)[C@H]([C@@H](C)CC)NC(=O)[C@H]([C@@H](C)O)NC(=O)[C@H](CC(=O)O)NC1=O [[Lys16, 29;2-Nal27]ShK-amide] | 10.1 | 24.7 | 13.1 |
| CCCC[C@@H]1NC(=O)[C@H](CO)NC(=O)[C@H](Cc2c[nH]cn2)NC(=O)[C@H](CCCCN)NC(=O)[C@@H]2CSSC[C@@H]3NC(=O)[C@H]([C@@H](C)O)NC(=O)[C@H](C)NC(=O)[C@H](CCCCN)NC(=O)[C@H](CSSC[C@H](NC(=O)[C@H](CCCNC(=N)N)NC(=O)[C@H](CO)NC(=O)[C@H](CCCCN)NC(=O)[C@@H]4CCCN4C(=O)[C@H]([C@@H](C)CC)NC(=O)[C@H]([C@@H](C)O)NC(=O)[C@H](CC(=O)O)NC(=O)[C@H]([C@@H](C)CC)NC(=O)[C@@H](NC(=O)[C@H](CO)NC(=O)[C@@H](N)CCCNC(=N)N)CSSC[C@@H](C(N)=O)NC(=O)[C@H]([C@@H](C)O)NC(=O)CNC3=O)C(=O)N[C@@H]([C@@H](C)O)C(=O)N[C@@H](C)C(=O)N[C@@H](Cc3ccccc3)C(=O)N[C@@H](CCCCN)C(=O)N2)NC(=O)[C@H](Cc2ccccc2)NC(=O)[C@H](CO)NC(=O)[C@H](CC(C)C)NC(=O)[C@H](CCCNC(=N)N)NC(=O)[C@H](Cc2ccc(O)cc2)NC(=O)[C@H](CCCCN)NC1=O [[Lys16, 29; Ala30,Nle21]ShK-amide] | 0.057 | 1.7 | 0.791 |
| CC[C@H](C)[C@@H]1NC(=O)[C@@H](NC(=O)[C@H](CO)NC(=O)[C@@H](N)CCCNC(=N)N)CSSC[C@@H](C(N)=O)NC(=O)[C@H]([C@@H](C)O)NC(=O)CNC(=O)[C@@H]2CSSC[C@@H]3NC(=O)[C@H](CCCCN)NC(=O)[C@H](Cc4ccccc4)NC(=O)[C@H](C)NC(=O)[C@H]([C@@H](C)O)NC(=O)[C@H](CSSC[C@H](NC(=O)[C@H](Cc4ccccc4)NC(=O)[C@H](CO)NC(=O)[C@H](CC(C)C)NC(=O)[C@H](CCCNC(=N)N)NC(=O)[C@H](Cc4ccc(O)cc4)NC(=O)[C@H](CCCCN)NC(=O)[C@H](CCSC)NC(=O)[C@H](CO)NC(=O)[C@H](Cc4c[nH]cn4)NC(=O)[C@H](CCCCN)NC3=O)C(=O)N[C@@H](CCCCN)C(=O)N[C@@H](C)C(=O)N[C@@H]([C@@H](C)O)C(=O)N2)NC(=O)[C@H](CCCNC(=N)N)NC(=O)[C@H](CO)NC(=O)[C@H](CCCCN)NC(=O)[C@@H]2CCCN2C(=O)[C@H]([C@@H](C)CC)NC(=O)[C@H]([C@@H](C)O)NC(=O)[C@H](CC(=O)O)NC1=O [[Lys16, 29;A1a30]ShK-amide] | 0.197 | 0.289 | 0.186 |
| CC[C@H](C)[C@@H]1NC(=O)[C@@H](NC(=O)[C@H](CO)NC(=O)[C@@H](N)CCCNC(=N)N)CSSC[C@@H](C(N)=O)NC(=O)[C@H]([C@@H](C)O)NC(=O)CNC(=O)[C@@H]2CSSC[C@@H]3NC(=O)[C@H](CCCCN)NC(=O)[C@H](Cc4ccccc4)NC(=O)[C@H](C)NC(=O)[C@H]([C@@H](C)O)NC(=O)[C@H](CSSC[C@H](NC(=O)[C@H](Cc4ccccc4)NC(=O)[C@H](CO)NC(=O)[C@H](CC(C)C)NC(=O)[C@H](CCCNC(=N)N)NC(=O)[C@H](Cc4ccc(O)cc4)NC(=O)[C@H](CCCCN)NC(=O)[C@H](CCSC)NC(=O)[C@H](CO)NC(=O)[C@H](Cc4c[nH]cn4)NC(=O)[C@H](CCCNC(=N)N)NC3=O)C(=O)N[C@@H](CCCCN)C(=O)N[C@@H](CCCNC(=N)N)C(=O)N[C@@H]([C@@H](C)O)C(=O)N2)NC(=O)[C@H](CCCNC(=N)N)NC(=O)[C@H](CO)NC(=O)[C@H](CCCCN)NC(=O)[C@@H]2CCCN2C(=O)[C@H]([C@@H](C)CC)NC(=O)[C@H]([C@@H](C)O)NC(=O)[C@H](CC(=O)O)NC1=O [[Lys16, 29;Arg18,30]ShK-amide] | 0.401 | 0.242 | 0.26 |

Source: patent US20120121591A1 (priority 2009, published 2012)
